According to ChEMBL document CHEMBL4152312, “Identification of fused pyrimidines as interleukin 17 secretion inhibitors” (Eur J Med Chem, 2018):

Experiments:
PBMC = assay: Cytotoxicity against human PBMC assessed as induction of cell death by cell Titer-Glo assay; type: cell-based
[1] = target: Macrophage colony-stimulating factor 1 receptor (Homo sapiens) (UniProt P07333); assay: Inhibition of recombinant human His-tagged CSF1R (538 to 910 residues) expressed in baculovirus expression system at 500 nM by Z-LYTE assay relative to control
[2] = target: Epidermal growth factor receptor (Homo sapiens) (UniProt P00533); assay: Inhibition of recombinant human GST-tagged wild-type EGFR cytoplasmic domain (668 to 1210 residues) expressed in baculovirus expression system at 500 nM by Z-LYTE assay relative to control
[3] = target: Receptor tyrosine-protein kinase erbB-4 (Homo sapiens) (UniProt Q15303); assay: Inhibition of recombinant humans GST-tagged ERBB4 cytoplasmic domain expressed in baculovirus expression system at 500 nM by Z-LYTE assay relative to control
Receptor tyrosine-protein kinase erbB-4 (Homo sapiens), sequence (Q15303 whole entry, the tested form may be a part): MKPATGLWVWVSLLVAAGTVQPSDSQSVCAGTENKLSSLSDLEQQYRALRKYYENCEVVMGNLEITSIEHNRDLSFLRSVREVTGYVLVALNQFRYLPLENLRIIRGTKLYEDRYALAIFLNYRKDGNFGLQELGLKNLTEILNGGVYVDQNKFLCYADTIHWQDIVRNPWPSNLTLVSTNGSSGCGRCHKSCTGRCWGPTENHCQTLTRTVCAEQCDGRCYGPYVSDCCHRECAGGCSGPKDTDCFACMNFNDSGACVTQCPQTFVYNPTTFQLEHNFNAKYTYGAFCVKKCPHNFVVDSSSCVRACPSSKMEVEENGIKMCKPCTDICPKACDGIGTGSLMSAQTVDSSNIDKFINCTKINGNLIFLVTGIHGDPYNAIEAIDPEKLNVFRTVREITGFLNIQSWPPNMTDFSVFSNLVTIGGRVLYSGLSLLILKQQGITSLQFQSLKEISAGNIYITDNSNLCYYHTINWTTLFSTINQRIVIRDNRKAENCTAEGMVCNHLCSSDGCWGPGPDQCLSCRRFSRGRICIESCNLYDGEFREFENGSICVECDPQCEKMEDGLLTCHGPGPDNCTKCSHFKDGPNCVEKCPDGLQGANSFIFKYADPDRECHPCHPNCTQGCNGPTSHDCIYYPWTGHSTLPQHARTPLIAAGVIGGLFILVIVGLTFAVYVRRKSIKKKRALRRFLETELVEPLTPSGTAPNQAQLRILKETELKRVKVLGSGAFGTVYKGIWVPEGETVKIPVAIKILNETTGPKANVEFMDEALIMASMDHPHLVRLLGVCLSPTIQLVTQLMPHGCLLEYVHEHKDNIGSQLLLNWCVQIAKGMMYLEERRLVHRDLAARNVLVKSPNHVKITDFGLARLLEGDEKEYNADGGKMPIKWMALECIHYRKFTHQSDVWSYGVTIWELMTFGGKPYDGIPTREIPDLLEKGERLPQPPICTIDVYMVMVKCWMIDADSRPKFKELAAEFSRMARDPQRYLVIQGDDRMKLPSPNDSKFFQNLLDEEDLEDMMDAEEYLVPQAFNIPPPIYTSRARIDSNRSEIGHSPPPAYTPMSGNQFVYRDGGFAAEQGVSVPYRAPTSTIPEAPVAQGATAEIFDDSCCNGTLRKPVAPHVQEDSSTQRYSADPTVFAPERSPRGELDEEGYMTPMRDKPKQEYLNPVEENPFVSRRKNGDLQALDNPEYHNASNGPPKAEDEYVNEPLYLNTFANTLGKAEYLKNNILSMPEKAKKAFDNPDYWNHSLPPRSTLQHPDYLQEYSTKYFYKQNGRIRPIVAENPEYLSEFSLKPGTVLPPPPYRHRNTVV

[4] = target: Serine/threonine-protein kinase mTOR (Homo sapiens) (UniProt P42345); assay: Inhibition of recombinant human GST-tagged mTOR cytoplasmic domain (1360 to 2549 residues) expressed in baculovirus expression system at 500 nM by Z-LYTE assay relative to control
[5] = target: Glycogen synthase kinase-3 alpha (Homo sapiens) (UniProt P49840); assay: Inhibition of GSK3alpha (unknown origin) at 500 nM by Z-LYTE assay relative to control
Glycogen synthase kinase-3 alpha (Homo sapiens), sequence (P49840 2-483 limits assumed): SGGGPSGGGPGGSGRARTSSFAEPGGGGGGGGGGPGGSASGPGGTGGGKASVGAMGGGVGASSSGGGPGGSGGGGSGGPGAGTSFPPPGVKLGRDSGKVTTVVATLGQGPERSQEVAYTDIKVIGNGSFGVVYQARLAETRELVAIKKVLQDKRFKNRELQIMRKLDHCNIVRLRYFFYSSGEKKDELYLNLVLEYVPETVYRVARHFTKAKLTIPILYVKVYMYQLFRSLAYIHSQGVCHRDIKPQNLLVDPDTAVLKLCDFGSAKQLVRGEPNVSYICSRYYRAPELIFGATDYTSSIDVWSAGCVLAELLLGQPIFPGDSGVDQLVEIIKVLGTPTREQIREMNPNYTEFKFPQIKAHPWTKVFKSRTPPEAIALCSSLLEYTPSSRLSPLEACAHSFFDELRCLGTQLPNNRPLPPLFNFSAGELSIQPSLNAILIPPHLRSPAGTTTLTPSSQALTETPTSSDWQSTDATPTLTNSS

[6] = target: Tyrosine-protein kinase JAK1 (Homo sapiens) (UniProt P23458); assay: Inhibition of recombinant human GST-tagged JAK1 cytoplasmic domain expressed in baculovirus expression system at 500 nM by Z-LYTE assay relative to control
[7] = target: Tyrosine-protein kinase JAK2 (Homo sapiens) (UniProt O60674); assay: Inhibition of recombinant human GST-tagged JAK2 cytoplasmic domain (809 to […] residues) expressed in baculovirus expression system at 500 nM by Z-LYTE assay relative to control
[8] = target: Vascular endothelial growth factor receptor 2 (Homo sapiens) (UniProt P35968); assay: Inhibition of recombinant human His-tagged KDR cytoplasmic domain (789 to 1356 residues) expressed in baculovirus expression system at 500 nM by Z-LYTE assay relative to control
[9] = target: Tyrosine-protein kinase Lck (Homo sapiens) (UniProt P06239); assay: Inhibition of recombinant full-length human His-tagged LCK expressed in baculovirus expression system at 500 nM by Z-LYTE assay relative to control
[10] = target: Dual specificity mitogen-activated protein kinase kinase 1 (Homo sapiens) (UniProt Q02750); assay: Inhibition of recombinant human full length His-tagged MEK1 expressed in baculovirus expression system at 500 nM by Z-LYTE assay relative to control
Dual specificity mitogen-activated protein kinase kinase 1 (Homo sapiens), sequence (Q02750 whole entry): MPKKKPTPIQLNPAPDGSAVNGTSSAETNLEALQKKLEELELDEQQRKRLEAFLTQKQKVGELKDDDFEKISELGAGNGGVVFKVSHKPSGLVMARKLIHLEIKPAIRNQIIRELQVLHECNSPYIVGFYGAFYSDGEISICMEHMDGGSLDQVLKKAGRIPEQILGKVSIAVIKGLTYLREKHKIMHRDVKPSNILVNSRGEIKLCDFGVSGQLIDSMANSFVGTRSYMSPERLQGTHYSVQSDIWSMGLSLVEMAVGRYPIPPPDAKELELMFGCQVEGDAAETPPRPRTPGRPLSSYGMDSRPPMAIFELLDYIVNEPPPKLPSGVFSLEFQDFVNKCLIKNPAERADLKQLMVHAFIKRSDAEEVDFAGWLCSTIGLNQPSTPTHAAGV

[11] = target: Mitogen-activated protein kinase 1 (Homo sapiens) (UniProt P28482); assay: Inhibition of recombinant human full length GST-tagged ERK2 expressed in Escherichia coli at 500 nM by Z-LYTE assay relative to control
[12] = target: Mitogen-activated protein kinase 11 (Homo sapiens) (UniProt Q15759); assay: Inhibition of recombinant human full length His-tagged p38-beta expressed in baculovirus expression system at 500 nM by Z-LYTE assay relative to control
[13] = target: T1, Mitogen-activated protein kinase 12 (Homo sapiens) (UniProt P53778); assay: Inhibition of recombinant human full length His-tagged p38-gamma expressed in baculovirus expression system at 500 nM by Z-LYTE assay relative to control
T1 sequence (whole entry): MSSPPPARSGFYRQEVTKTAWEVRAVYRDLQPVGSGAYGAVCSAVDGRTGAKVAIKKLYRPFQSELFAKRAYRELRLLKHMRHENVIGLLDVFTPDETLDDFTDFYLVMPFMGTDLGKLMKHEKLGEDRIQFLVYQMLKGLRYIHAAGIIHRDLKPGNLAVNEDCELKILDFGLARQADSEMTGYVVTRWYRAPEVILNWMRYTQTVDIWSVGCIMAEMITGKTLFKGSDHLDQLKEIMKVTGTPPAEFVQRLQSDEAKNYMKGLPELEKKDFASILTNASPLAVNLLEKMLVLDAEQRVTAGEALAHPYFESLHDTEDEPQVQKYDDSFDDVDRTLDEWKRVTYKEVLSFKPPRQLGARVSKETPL

[14] = target: T2, Mitogen-activated protein kinase 13 (Homo sapiens) (UniProt O15264); assay: Inhibition of recombinant human full length His-tagged p38-delta expressed in baculovirus expression system at 500 nM by Z-LYTE assay relative to control
T2 sequence (whole entry): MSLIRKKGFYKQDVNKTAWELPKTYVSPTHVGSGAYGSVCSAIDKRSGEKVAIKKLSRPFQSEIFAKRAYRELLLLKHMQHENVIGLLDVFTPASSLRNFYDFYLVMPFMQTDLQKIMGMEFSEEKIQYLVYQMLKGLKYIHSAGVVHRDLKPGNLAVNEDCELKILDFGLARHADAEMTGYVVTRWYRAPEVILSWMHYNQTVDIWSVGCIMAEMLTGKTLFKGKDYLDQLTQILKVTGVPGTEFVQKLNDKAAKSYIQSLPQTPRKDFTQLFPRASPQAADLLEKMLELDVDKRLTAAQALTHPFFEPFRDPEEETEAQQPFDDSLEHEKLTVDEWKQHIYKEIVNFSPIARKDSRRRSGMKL

[15] = target: Platelet-derived growth factor receptor alpha (Homo sapiens) (UniProt P16234); assay: Inhibition of recombinant human GST-tagged PDGFRalpha cytoplasmic domain (550 to 1089 residues) expressed in baculovirus expression system at 500 nM by Z-LYTE assay relative to control
Platelet-derived growth factor receptor alpha (Homo sapiens), sequence (P16234 whole entry, the tested form may be a part): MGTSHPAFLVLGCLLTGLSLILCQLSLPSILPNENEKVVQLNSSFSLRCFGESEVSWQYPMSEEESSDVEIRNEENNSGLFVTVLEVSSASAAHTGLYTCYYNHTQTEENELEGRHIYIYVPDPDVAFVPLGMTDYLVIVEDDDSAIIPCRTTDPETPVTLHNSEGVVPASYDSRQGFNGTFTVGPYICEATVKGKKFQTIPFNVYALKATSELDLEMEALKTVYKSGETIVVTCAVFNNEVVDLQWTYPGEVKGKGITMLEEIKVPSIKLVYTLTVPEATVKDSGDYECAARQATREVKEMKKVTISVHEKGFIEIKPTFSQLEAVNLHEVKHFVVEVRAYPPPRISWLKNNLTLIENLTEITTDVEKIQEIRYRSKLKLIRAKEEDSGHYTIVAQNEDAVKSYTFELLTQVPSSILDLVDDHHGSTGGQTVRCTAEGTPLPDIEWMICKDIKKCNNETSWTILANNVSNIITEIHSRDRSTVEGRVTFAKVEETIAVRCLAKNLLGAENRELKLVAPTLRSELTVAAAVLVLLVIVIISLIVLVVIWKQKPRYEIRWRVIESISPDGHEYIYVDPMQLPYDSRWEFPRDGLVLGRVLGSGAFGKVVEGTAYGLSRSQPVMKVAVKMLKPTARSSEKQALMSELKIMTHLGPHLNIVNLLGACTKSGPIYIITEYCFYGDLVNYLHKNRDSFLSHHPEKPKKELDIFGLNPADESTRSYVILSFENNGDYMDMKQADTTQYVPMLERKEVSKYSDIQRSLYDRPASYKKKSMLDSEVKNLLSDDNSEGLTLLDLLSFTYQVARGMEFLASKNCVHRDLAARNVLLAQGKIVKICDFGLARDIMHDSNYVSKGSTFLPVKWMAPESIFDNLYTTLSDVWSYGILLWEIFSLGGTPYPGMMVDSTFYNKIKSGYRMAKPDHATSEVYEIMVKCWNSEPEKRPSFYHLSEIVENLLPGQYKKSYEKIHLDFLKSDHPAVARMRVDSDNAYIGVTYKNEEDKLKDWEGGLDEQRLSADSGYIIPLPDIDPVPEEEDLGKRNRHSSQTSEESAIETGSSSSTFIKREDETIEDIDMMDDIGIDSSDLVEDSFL

[16] = target: PI3-kinase p110-delta/p85-alpha (Homo sapiens) (UniProt P27986+O00329); assay: Inhibition of PI3K p110delta/p85alpha (unknown origin) at 500 nM by Z-LYTE assay relative to control; type: protein-complex assay
[17] = target: Serine/threonine-protein kinase pim-1 (Homo sapiens) (UniProt P11309); assay: Inhibition of recombinant full length human His-tagged PIM1 expressed in baculovirus expression system at 500 nM by Z-LYTE assay relative to control
[18] = target: Serine/threonine-protein kinase pim-2 (Homo sapiens) (UniProt Q9P1W9); assay: Inhibition of recombinant full length human GST-tagged PIM2 expressed in baculovirus expression system at 500 nM by Z-LYTE assay relative to control
[19] = target: Serine/threonine-protein kinase pim-3 (Homo sapiens) (UniProt Q86V86); assay: Inhibition of recombinant full length human GST-tagged PIM3 expressed in insect cells at 500 nM by Z-LYTE assay relative to control
[20] = target: Rho-associated protein kinase 2 (Homo sapiens) (UniProt O75116); assay: Inhibition of recombinant human N-terminal GST-tagged ROCK2 cytoplasmic domain (1 to 552 residues) expressed in baculovirus expression system at 500 nM by Z-LYTE assay relative to control
Rho-associated protein kinase 2 (Homo sapiens), sequence (O75116 whole entry, looked up, the tested form may be a part): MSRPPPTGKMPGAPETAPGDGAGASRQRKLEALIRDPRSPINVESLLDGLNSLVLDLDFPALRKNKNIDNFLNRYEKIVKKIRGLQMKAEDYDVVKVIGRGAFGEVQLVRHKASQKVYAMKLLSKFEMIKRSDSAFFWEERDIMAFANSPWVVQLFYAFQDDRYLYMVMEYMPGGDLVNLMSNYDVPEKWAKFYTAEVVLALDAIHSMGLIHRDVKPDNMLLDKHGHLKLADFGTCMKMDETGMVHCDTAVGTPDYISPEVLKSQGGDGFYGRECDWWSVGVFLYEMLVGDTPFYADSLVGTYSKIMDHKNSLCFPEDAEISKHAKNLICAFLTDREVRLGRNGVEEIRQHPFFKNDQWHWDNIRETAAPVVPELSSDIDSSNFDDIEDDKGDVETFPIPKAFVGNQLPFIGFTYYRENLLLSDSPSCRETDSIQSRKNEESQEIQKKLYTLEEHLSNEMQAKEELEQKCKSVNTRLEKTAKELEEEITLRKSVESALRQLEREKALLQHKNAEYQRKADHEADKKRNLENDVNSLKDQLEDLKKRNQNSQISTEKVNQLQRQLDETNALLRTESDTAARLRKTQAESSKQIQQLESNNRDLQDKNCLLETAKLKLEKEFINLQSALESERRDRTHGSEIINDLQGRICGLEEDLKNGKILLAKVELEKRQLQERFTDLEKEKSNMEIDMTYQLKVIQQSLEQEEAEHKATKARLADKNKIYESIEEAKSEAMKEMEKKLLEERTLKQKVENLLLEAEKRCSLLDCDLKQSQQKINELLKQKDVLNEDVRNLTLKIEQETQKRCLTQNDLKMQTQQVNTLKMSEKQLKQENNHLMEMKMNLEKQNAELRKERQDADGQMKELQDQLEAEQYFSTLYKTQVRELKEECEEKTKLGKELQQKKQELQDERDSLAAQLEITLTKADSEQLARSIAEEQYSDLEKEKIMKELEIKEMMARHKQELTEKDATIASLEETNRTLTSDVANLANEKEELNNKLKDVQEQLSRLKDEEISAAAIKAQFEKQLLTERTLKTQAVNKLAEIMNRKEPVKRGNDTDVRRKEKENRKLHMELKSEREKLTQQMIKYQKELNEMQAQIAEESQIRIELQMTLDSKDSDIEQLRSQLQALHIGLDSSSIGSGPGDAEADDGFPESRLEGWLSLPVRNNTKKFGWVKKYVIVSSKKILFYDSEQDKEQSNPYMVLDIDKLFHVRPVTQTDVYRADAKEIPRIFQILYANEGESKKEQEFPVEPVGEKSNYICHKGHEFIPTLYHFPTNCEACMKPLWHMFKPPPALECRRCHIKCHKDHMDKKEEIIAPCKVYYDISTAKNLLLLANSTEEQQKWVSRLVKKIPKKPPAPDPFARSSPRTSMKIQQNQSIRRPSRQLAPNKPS

[21] = target: Tyrosine-protein kinase Yes (Homo sapiens) (UniProt P07947); assay: Inhibition of human full length GST-tagged YES1 expressed in baculovirus expression system at 500 nM by Z-LYTE assay relative to control

Row | SMILES | IC50 (PBMC) [µM] | inhibition [1] [%] | inhibition [3] [%] | inhibition [4] [%] | inhibition [5] [%] | inhibition [6] [%] | inhibition [7] [%] | inhibition [8] [%] | inhibition [9] [%] | inhibition [10] [%] | inhibition [11] [%] | inhibition [12] [%] | inhibition [13] [%] | inhibition [14] [%] | inhibition [15] [%] | inhibition [17] [%] | inhibition [18] [%] | inhibition [19] [%] | inhibition [20] [%] | inhibition [21] [%] | other results
1 | OC[C@@H](Nc1ncnc2sc(-c3ccc(O)cc3)cc12)c1ccccc1 | > 30 | 31 | 20 | 7 | 9 | -2 | 1 | 20 | 3 | 21 | 7 | 4 | 0 | -2 | 0 | 11 | 3 | 7 | 2 | 13 | inhibition [2]: 99%; inhibition [16]: 0%
2 | OCc1ccc(-c2cc3c(N[C@H](CO)c4ccccc4)ncnc3[nH]2)cc1 | > 10 | 96 | 71 | 12 | 4 | -1 | 6 | 38 | 36 | 10 | 9 | 6 | 12 | 0 | 12 | 7 | 10 | 3 | 6 | 81 | inhibition [16]: 2%
3 | CN(C)CCn1cc(-c2cccc(O)c2)c2c(N)ncnc21 | > 10 | 39 | 3 | 14 | 3 | 3 | 7 | 17 | 32 | 6 | 6 | 2 | 10 | 1 | 18 | 9 | 5 | -7 | 33 | 65 | inhibition [2]: 4%
4 | CCC(=O)Nc1ccc(-c2c[nH]c3ncnc(N[C@H](C)c4ccccc4)c23)cc1 | > 10 | 21 | 12 | 11 | 14 | 3 | 13 | 7 | 19 | 15 | 6 | 2 | 10 | 3 | 8 | 1 | 8 | -1 | 6 | 9 | inhibition [2]: 98%; inhibition [16]: 13%
